According to patent US20040024024A1, “Aromatic sulfone hydroxamates and their use as protease inhibitors” (priority 2001, published 2004):
Where a name gives a salt, the structure may show the parent alone.

Legend:
Assay in all cases: In vitro MMP inhibition, IC50 determination (fluorogenic substrate I)
Type in all cases: biochemical
Human recombinant MMP-14 = target: T1, Human recombinant MMP-14 (Homo sapiens, UniProt P50281)
T1 construct: The catalytic domain enzyme was expressed in E. coli inclusion bodies, solubilized in urea; made in house
Procedure: (§1) Several hydroxamates and salts thereof were analyzed in in vitro assays to determine their ability to inhibit the MMP cleavage of peptide substrates. Inhibition (Ki) and IC50 constants were calculated from the assayed hydroxamate-MMP interactions.
(§2) Human recombinant MMP-1, MMP-2, MMP-9, MMP-13, and MMP-14 were used in this assay. All enzymes were prepared in Assignee's laboratories following usual laboratory procedures. Protocols for the preparation and use of these enzymes are available in the scientific literature. See, e.g., Enzyme Nomenclature (Academic Press, San Diego, Calif., 1992) (and the citations therein). See also, Frije et al., J. Biol. Chem., 26(24), 16766-73 (1994).
The MMP-14 full length cDNA was provided by Dr. Gregory Goldberg of Washington University (St. Louis, Mo.). The catalytic domain enzyme was expressed in E. coli inclusion bodies, solubilized in urea, purified on a preparative […] reverse phase HPLC column, and then refolded in the presence of zinc acetate and purified for use.
(§3) All MMPs were activated using 4-aminophenylmercuric acetate (“APMA”, Sigma Chemical, St. Louis, Mo.) or trypsin. MMP-9 also was activated using human recombinant MMP-3 (purified in Assignee's laboratory following standard cloning and purification techniques).
(§4) Two fluorogenic, methoxycoumarin-containing polypeptide substrates were used in the MMP inhibition assays:
(§5) MCA-ProLeuGlyLeuDpaAlaArgNH2 (I)
(§6) Here, “Dpa” is 3-(2,4-dinitrophenyl)-L-2,3-diaminopropionyl group, and “MCA” is 7-methoxycoumarin-4-yl acetyl. Substrate (I) was purchased from Baychem (Redwood City, Calif.), and substrate II was prepared Assignee's laboratory. Substrate I was used in the IC50 determination assays, while substrate II was used in the Ki determination assays. In the absence of MMP inhibitory activity, either substrate is cleaved at the Gly-Leu peptide bond. This cleavage separates the highly fluorogenic peptide from the 2,4-dinitrophenyl quencher, thus resulting in increase of fluorescent intensity.
(§7) The stock solutions of the assayed hydroxamates (or salts thereof) were prepared in 1% dimethyl sulfoxide (DMSO). These stock solutions were diluted in Buffer A (100 mM Tris-HCl, 100 mM NaCl, 10 mM CaCl2, 0.05% polyoxyethylene 23 lauryl ether, pH 7.5) to obtain solutions with different hydroxamate concentrations, i.e., assay solutions with different concentrations of the assayed MMP inhibitory compound. The experiment controls contained the same amount of Buffer A/DMSO as the assayed sample, but contained no hydroxamate (or salt thereof).
(§8) The assays from which the IC50 determinations were made were performed as follows. The MMPs were activated with either trypsin or APMA (4-aminophenylmercuric acetate, Sigma Chemical, St. Louis, Mo.). The assayed hydroxamate samples were, incubated in Microfluorrm White Plates (Dynatech, Chantilly, VA) and analyzed on a Perkin Elmer L550 plate reader (Norwalk, Conn.). The excitation wavelength was 328 nm, and the emission wavelength—415 nm. All samples (assayed hydroxamates and controls) were incubated in separate plates at room temperature in the presence of 4 μM of MMP substrate (I). As stated in the previous paragraph, samples containing varying concentrations of the same assayed hydroxamate were prepared. Inhibition was measured as a reduction in fluorescent intensity as a function of MMP inhibitor concentration.

Human recombinant MMP-2 = target: T2, Human recombinant MMP-2 (Homo sapiens, UniProt P08253)
T2 construct: made in house; host or cells: MMP-2-transfected p2AHT2 cells
T2 sequence (P08253 110-660): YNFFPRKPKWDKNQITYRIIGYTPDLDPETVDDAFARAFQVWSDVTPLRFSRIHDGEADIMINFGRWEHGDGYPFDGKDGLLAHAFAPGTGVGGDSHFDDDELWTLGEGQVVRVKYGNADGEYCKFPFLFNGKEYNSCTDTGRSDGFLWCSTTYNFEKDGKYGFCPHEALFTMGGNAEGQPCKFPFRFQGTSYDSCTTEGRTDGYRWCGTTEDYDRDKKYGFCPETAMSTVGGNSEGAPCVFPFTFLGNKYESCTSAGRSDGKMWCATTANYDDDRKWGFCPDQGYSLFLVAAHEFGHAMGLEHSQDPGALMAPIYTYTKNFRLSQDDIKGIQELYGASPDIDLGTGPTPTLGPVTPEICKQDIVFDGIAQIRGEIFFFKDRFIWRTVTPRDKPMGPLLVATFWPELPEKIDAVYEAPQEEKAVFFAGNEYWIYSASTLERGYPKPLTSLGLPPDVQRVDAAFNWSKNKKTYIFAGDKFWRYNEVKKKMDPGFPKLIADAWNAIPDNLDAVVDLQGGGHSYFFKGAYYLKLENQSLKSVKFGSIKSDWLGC
Outline: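 IC50 was derived from the concentration-dependent fall in fluorescence (ex 328, em 415 nm) on Gly-Leu cleavage of 4 μM MCA/Dpa-quenched substrate I. Assays ran at room temperature in pH 7.5 Tris/NaCl/CaCl2/Brij buffer with MMP-2 activated by trypsin or APMA; inhibitors were diluted from 1% DMSO stocks.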

Human recombinant MMP-13 = target: T3, Human recombinant MMP-13 (Homo sapiens, UniProt P45452)
T3 construct: made in house; host or cells: baculovirus / insect cells
Outline: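 Fluorescence at 415 nm (excitation 328 nm) reports Gly-Leu cleavage of 4 μM quenched methoxycoumarin peptide substrate I. Human recombinant MMP-13, activated by trypsin or APMA, was incubated at room temperature with varied inhibitor concentrations in pH 7.5 Tris/NaCl/CaCl2 buffer; IC50 derived from reduced fluorescence.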

Human recombinant MMP-1 = target: T4, Human recombinant MMP-1 (Homo sapiens, UniProt P03956)
T4 construct: made in house; host or cells: MMP-1-transfected HT-1080 cells (spent media)
T4 sequence (P03956 100-469): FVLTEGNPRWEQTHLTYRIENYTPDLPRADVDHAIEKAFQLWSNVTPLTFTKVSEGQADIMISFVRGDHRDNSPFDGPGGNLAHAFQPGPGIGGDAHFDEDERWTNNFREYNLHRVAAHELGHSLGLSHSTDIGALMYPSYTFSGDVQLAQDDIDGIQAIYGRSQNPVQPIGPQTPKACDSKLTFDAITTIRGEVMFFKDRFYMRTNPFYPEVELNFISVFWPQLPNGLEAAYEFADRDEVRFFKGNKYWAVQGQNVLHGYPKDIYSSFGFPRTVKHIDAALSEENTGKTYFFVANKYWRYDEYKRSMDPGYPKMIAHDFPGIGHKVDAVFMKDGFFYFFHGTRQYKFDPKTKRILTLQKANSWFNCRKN
Procedure: as §1, §2
The MMP-1 proenzyme was purified from the spent media of MMP-1-transfected HT-1080 cells provided by Dr. Harold Welgus of Washington University (St. Louis, Mo.). The protein was purified on a zinc chelating column.
as §3, §4, §5, §6, §7, §8

Human recombinant MMP-9 = target: T5, Human recombinant MMP-9 (Homo sapiens, UniProt P14780)
T5 construct: made in house; host or cells: MMP-9-transfected HT1080 cells (spent media)
Procedure: as §1, §2
The MMP-9 proenzyme was purified by gelatin Sepharose chromatography from spent media of MMP-9-transfected HT1080 cells provided by Dr. Howard Welgus of Washington University (St. Louis, Mo.).
as §3, §4, §5, §6, §7, §8

[1] = substrate (I) 4 μM, room temperature, values not in parenthesis

T5 sequence (P14780 107-707 limits assumed): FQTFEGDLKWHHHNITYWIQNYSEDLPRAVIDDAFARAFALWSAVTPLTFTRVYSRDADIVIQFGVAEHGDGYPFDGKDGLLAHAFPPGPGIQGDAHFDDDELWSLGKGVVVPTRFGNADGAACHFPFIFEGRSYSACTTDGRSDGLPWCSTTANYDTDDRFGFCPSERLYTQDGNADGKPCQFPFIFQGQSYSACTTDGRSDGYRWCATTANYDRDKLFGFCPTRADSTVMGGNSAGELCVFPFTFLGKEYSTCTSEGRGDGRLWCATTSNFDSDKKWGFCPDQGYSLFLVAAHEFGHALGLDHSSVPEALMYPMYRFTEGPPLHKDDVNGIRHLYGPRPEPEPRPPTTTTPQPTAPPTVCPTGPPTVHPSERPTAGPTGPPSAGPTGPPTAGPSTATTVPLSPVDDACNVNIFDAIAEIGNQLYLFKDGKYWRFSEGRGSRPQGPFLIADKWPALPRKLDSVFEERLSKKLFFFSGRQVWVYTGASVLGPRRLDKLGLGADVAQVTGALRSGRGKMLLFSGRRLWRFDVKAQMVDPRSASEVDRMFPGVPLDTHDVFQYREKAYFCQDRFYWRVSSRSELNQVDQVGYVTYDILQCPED

SMILES	IC50 (Human recombinant MMP-14; [1]) [µM]	IC50 (Human recombinant MMP-2; [1]) [nM]	IC50 (Human recombinant MMP-13; [1]) [nM]	IC50 (Human recombinant MMP-1; [1]) [µM]	IC50 (Human recombinant MMP-9; [1]) [nM]	IC50 (Human recombinant MMP-14; value outside parenthesis) [µM]	IC50 (Human recombinant MMP-2; value outside parenthesis) [nM]	IC50 (Human recombinant MMP-13; value outside parenthesis) [nM]	IC50 (Human recombinant MMP-1; value outside parenthesis) [µM]	IC50 (Human recombinant MMP-9; value outside parenthesis) [nM]
O=C(NO)C1(S(=O)(=O)c2ccc(OCCCc3nc4ccccc4o3)cc2)CCOCC1 [Example 37, 4-[[4-[3-(2-benzoxazolyl)propoxy]phenyl]sulfonyl]tetrahydro-N-hydroxy-2H-pyran-4-carboxamide]	> 10	30.3	1.4	8.71	449					
COCCN1CCC(C(=O)NO)(S(=O)(=O)c2ccc(OCCCSc3nc4ccccc4o3)cc2)CC1 [Example 43, 4-([4-[3-(1,3-benzoxazol-2-ylthio)propoxy]phenyl]sulfonyl)-N-hydroxy-1-(2-methoxyethyl)piperidine-4-carboxamide Hydrochloride]	2.08	4.8	1	> 10	1					
COCCN1CCC(C(=O)NO)(S(=O)(=O)c2ccc(OCCCc3cccc(-c4ccccc4)c3)cc2)CC1 [Example 44]	4.98	133	1.4	> 10	154					
Cc1cc(-c2cccc(CCOc3ccc(S(=O)(=O)C4(C(=O)NO)CCOCC4)cc3)c2)ccc1F [Example 120]						> 10	1170	5.8	> 10	> 10000
O=C(NO)C1(S(=O)(=O)c2ccc(OCCc3cccc(-c4ccc(F)c(F)c4)c3)cc2)CCOCC1 [Example 122]						> 10	760	1.9	> 10	7670
CC(C)[C@H]1C(=O)N(CCCOc2ccc(S(=O)(=O)C3(C(=O)NO)CCOCC3)cc2)C(=O)N1c1ccccc1 [Example 134]						> 10	2380	7.7	> 10	> 10000
CCN1CCC(C(=O)NO)(S(=O)(=O)c2ccc(OCCCc3cccc(-c4ccc(F)cc4)c3)cc2)CC1 [Example 138]						> 10	247	2.1	> 10	1900
O=C1CN(c2ccc(OC(F)(F)F)cc2)C(=O)N1CCCOc1ccc(S(=O)(=O)C2(C(=O)NO)CCOCC2)cc1 [Example 144]						> 10	239	2.5	> 10	5990
C[C@@H]1C(=O)N(CCCOc2ccc(S(=O)(=O)C3(C(=O)NO)CCOCC3)cc2)C(=O)N1c1ccccc1 [Example 145]						> 10	817	2	> 10	9440
CCc1ccc(N2CCN(CCCOc3ccc(S(=O)(=O)C4(C(=O)NO)CCOCC4)cc3)C2=O)cc1 [Example 191]						> 10	341	9.5	6.96	383
O=C1N(CCCOc2ccc(S(=O)(=O)C3(C(=O)NO)CCOCC3)cc2)CCN1c1ccc(C(F)(F)F)cc1 [Example 193]						> 10	312	6.8	5.93	273
O=C1N(CCCOc2ccc(S(=O)(=O)C3(C(=O)NO)CCOCC3)cc2)CCN1c1ccc(OC(F)(F)F)cc1 [Example 194]						> 10	222	6.2	> 10	516

More lines, now with the values ahead:

IC50 (Human recombinant MMP-14; [1]) [µM]	IC50 (Human recombinant MMP-2; [1]) [nM]	IC50 (Human recombinant MMP-13; [1]) [nM]	IC50 (Human recombinant MMP-1; [1]) [µM]	IC50 (Human recombinant MMP-9; [1]) [nM]	IC50 (Human recombinant MMP-14; value outside parenthesis) [µM]	IC50 (Human recombinant MMP-2; value outside parenthesis) [nM]	IC50 (Human recombinant MMP-13; value outside parenthesis) [nM]	IC50 (Human recombinant MMP-1; value outside parenthesis) [µM]	IC50 (Human recombinant MMP-9; value outside parenthesis) [nM]	SMILES
					> 10	246	0.4	> 10	3440	O=C(NO)C1(S(=O)(=O)c2ccc(OCCc3cccc(-c4ccccc4)c3)cc2)CCOCC1 [Example 99]
					> 10	85.8	0.4	> 10	1130	COCCN1CCC(C(=O)NO)(S(=O)(=O)c2ccc(OCCCn3nnc(-c4ccc(C(F)(F)F)cc4)n3)cc2)CC1 [Example 103]
					> 10	1370	9.7	> 10	7690	CC(C)C[C@@H]1C(=O)N(CCCOc2ccc(S(=O)(=O)C3(C(=O)NO)CCOCC3)cc2)C(=O)N1c1ccccc1 [Example 105]
					> 10	1050	3.5	> 10	> 10000	CC[C@@H]1C(=O)N(CCCOc2ccc(S(=O)(=O)C3(C(=O)NO)CCOCC3)cc2)C(=O)N1c1ccccc1 [Example 106]
					0.5	4.7	0.3	4.61	50.2	COCCN1CCC(C(=O)NO)(S(=O)(=O)c2ccc(OCCCn3nnc(-c4ccc(SC)cc4)n3)cc2)CC1 [Example 130]
					2.72	30.4	3.9	1.53	104	COc1ccc(C(=O)C(O)CCOc2ccc(S(=O)(=O)C3(C(=O)NO)CCOCC3)cc2)cc1 (stereo not shown) [Example 184]
					1.42	3.6	1.8	3.87	11.2	CN(C)Cc1ccc(C(=O)CCCCOc2ccc(S(=O)(=O)C3(C(=O)NO)CCN(C4CC4)CC3)cc2)cc1 [Example 187]
					3.54	4.7	0.3	> 10	48.2	O=C(NO)C1(S(=O)(=O)c2ccc(OCCSc3nc4ccc(Cl)cc4o3)cc2)CCN(C2CC2)CC1 [Example 188]
